Laboratory results as given in patent publication US8871741B2, “Inhibition of TNF-α induced activation of NFKB by pentosan polysulfate” (Icahn School of Medicine at Mount Sinai, priority 2010, dated 2014).

Tests used:
hepatic lipase = assay: Post-heparin hepatic lipase activity in WHHL rabbits; type: in vivo, rabbit; conditions: end of treatment period
Method: Blood was drawn from rabbits after a 12-hour fast into tubes containing EDTA at the beginning of the study, every two weeks during treatment with the atherogenic diet, and at the end of the study. The total cholesterol and triglyceride concentrations (Sigma) as well as unesterified cholesterol and phospholipids (Wako Chemicals, Richmond, Va.) were determined on plasma samples using enzymatic methods on a Hitachi 911 Autoanalyzer (Boehringer Mannheim). Post-heparin hepatic lipase activity was determined as described (Iverius P H, Brunzell J D. Am J Physiol 1985; 249: E107-E114).

[1] = tested on: Watanabe heritable hypercholesterolemic rabbits (WHHL); assay: Progression of established atherosclerosis in WHHL rabbits, morphologic analysis of aorta; type: in vivo, rabbit
Method: The degree of aortic atherosclerosis was evaluated by measuring the percent lesion area on the surface of the whole intimal (surface area of lesion/surface area of the whole intima) in the region between the aortic arch and the emergence of the renal arteries. Moreover, serial cross-sectional tissue samples (≈3 mm in length) taken from the aortic arch to the […] were post-fixed in paraformaldehyde (4% wt/vol.) and processed for histological analysis. The specimens were then embedded in paraffin, and 4-μm-thick sections were stained with hematoxylin and eosin (H&E). The ratio of intima to media (I/M ratio) was measured by computer-aided morphometric analysis in three consecutive cross-sectional sections of the aortic arch and the abdominal aorta, near the origin of the renal arteries, as described (Shindo J, et al., Circulation 1999; 99: 2150-2156). To avoid errors due to the heterogeneity of atherosclerotic lesions, the cross sections containing the thickest atherosclerotic lesions were selected individually from the aortic arch and used for the analysis of the cross-sectional areas of atherosclerotic lesions (Shindo J, et al., Circulation 1999; 99: 2150-2156). Percentage of the area occupied by macrophages and collagen were measured by computer-aided morphometric analysis on aortic cross sections stained immunohistochemically with RAM-11 antibody (DAKO Corp.) or Sirius red, respectively.

MMP-2 = assay: Zymography of U937 cell supernatants, MMP-2; type: cell-based, human
Method: Human pro-monocytic U937 cells were obtained from American Type Culture Collection (Manassas, Va.) and grown in RPMI medium supplemented with 10% FBS. U937 cells were plated in six-well plates at a density of 5×10^6 cells/ml. The cells were then stimulated with 10 ng/ml TNF-α, in the presence or absence of either increasing concentrations of PPS (10-100 μg/ml) or heparin (100 μg/ml), and incubated at 37° C. for 3 hours. Following stimulation, cells were placed in 0.1% BSA-serum-free medium for 16-18 hours. The media was then collected, centrifuged, and supernatants were stored at −80° C. for the assessment of MMP activity. The cell number was determined by direct cell counting.
MMP activity in aortic extracts and conditioned media from monocytes was assessed, as previously described (Jacot T A, et al., Lab Invest. 1996; 75:791-79). Briefly, aortic segments were homogenized and extracted in RIPA buffer (25 mM Tris, pH 7.4, 150 mM KCl, 5 mM EDTA, 1% Nonidet P-40, 0.5% sodium deoxycholate, and 0.1% SDS). Insoluble material was precipitated by centrifugation, and soluble extracts were collected and stored at −20° C. for further analysis. For in vitro experiments, cell supernatants were centrifuged to remove cellular debris, and diluted appropriately to normalize for cell number. Aortic extracts and conditioned media were then mixed with sample buffer (1% SDS, 0.08 M Tris pH 6.8, 4% glycerol, and 0.006% bromophenol blue), and loaded onto a 10% gelatin polyacrylamide gel, and processed as described (Jacot T A, et al., Lab Invest. 1996; 75:791-79). For reverse zymography, samples were loaded onto a 15% gelatin polyacrylamide gel containing 0.5% porcine gelatin and 6 μg recombinant gelatinase A, and processed as described (Elliot S J, et al., J Am Soc Nephrol. 1999; 10: 62-68).

[2] = U937 cells, dose-response experiments

## pentosan polysulfate [PPS]
Hepatic lipase
  activity of post-heparin hepatic lipase, PPS- versus water-treated: no differences
[1]; HC-diet 45 days, then oral PPS for an additional 30 days
  intima/media ratio (I/M) compared to WHHL rabbits fed a HC-diet for 45 days: not significantly different
[1]; RAM-11 staining, aortic cross sections, 75 days HC-diet, PPS last 30 days, mean±SEM
  area containing macrophages, relative to the total plaque area: 35.56±1.51%
[1]; WHHL rabbits, HC-diet 75 days, PPS 30 mg/kg BW daily in drinking water for the last 30 days
  percent surface area of the intima occupied by lesions, reduction compared to water-treated controls: approximately one-third
[1]; aortic arch and abdominal aorta, 75 days HC-diet, oral PPS for the last 30 days
  intima/media ratio (I/M) compared to water-treated controls: significantly lower
[1]; aortic arch sections, 75 days HC-diet, PPS last 30 days, mean±SEM
  Sirius red staining (collagen) in plaques: 47.43±2.93%
MMP-2; U937 cells stimulated with 10 ng/ml TNF-α, 100 μg/ml PPS, P<0.05
  MMP-2 activity, reduction by PPS treatment: 37.73%±12.17%
MMP-2; [2]
  concentration at which the PPS effect on MMP activity was evident: 25 µg/mL
  concentration at which the PPS effect on MMP activity was maximal: 75 to 100 µg/mL
MMP-2; unstimulated U937 cells, 100 μg/ml PPS, figure data as percent of control, P<0.01
  MMP-2 activity, decrease by PPS treatment: 45.40%±9.68%
